In the NIST ThermoML archive (doi:10.1016/j.fluid.2014.11.026):
Values joined by “and” are separate entries in the source; they are usually repeats but may differ in a detail not shown here. Identical values can stand only once.

Details: Closed cell (Static) method

c1ccc2ccccc2c1 [naphthalene]
Crystal
Details	vapor or sublimation pressure [kPa]
297.72 K	0.01042
300.06 K	0.0131
302.47 K	0.01651
304.88 K	0.02077
307.27 K	0.02598
309.69 K	0.03247
312.35 K	0.04107
314.78 K	0.05102
317.21 K	0.06281
319.66 K	0.0774
322.08 K	0.0949
324.51 K	0.1161
326.97 K	0.1415

CC(=O)CCC=C(C)C [6-methyl-5-hepten-2-one]
Liquid
Details	vapor or sublimation pressure
283.85 K	0.05465 kPa
283.86 K	0.05482 kPa and 0.05462 kPa
283.92 K	0.05498 kPa
286.18 K	0.06551 kPa
286.23 K	0.06608 kPa
286.24 K	0.06599 kPa
288.57 K	0.07931 kPa
288.59 K	0.07922 kPa
288.61 K	0.07945 kPa
288.69 K	0.07994 kPa
290.97 K	0.09477 kPa
291 K	0.09535 kPa
291.02 K	0.09517 kPa
293.47 K	0.1142 kPa
293.49 K	0.1148 kPa
295.81 K	0.1358 kPa
295.85 K	0.1362 kPa
295.88 K	0.1365 kPa
298.28 K	0.1619 kPa
298.31 K	0.1623 kPa
300.61 K	0.1903 kPa
300.65 K	0.1915 kPa
300.69 K	0.1919 kPa
303.12 K	0.2264 kPa
303.15 K	0.2273 kPa
305.45 K	0.2654 kPa
305.48 K	0.2664 kPa
305.54 K	0.2673 kPa
307.99 K	0.3137 kPa
308.02 K	0.3147 kPa
310.3 K	0.3637 kPa
310.36 K	0.3668 kPa
310.42 K	0.3665 kPa
312.88 K	0.4306 kPa
312.9 K	0.4306 kPa
315.16 K	0.4939 kPa
315.23 K	0.4983 kPa
315.28 K	0.4979 kPa
317.72 K	0.5789 kPa
317.75 K	0.5801 kPa
320.01 K	0.6665 kPa
320.07 K	0.6684 kPa
320.13 K	0.6684 kPa
322.5 K	0.769 kPa
322.52 K	0.7718 kPa
322.56 K	0.7724 kPa
324.84 K	0.8831 kPa
324.89 K	0.8852 kPa
324.93 K	0.8864 kPa
327.28 K	1.015 kPa
327.32 K	1.015 kPa
327.36 K	1.016 kPa

C=CC(C)(O)CCC=C(C)C (configuration not stated) [3,7-dimethyl-1,6-octadien-3-ol]
Liquid
Details	vapor or sublimation pressure
284.62 K	0.006422 kPa
286.91 K	0.008001 kPa
289.26 K	0.01007 kPa
291.61 K	0.01262 kPa
294.02 K	0.01583 kPa
296.39 K	0.01969 kPa and 0.01967 kPa
298.77 K	0.0242 kPa
301.14 K	0.02977 kPa
301.2 K	0.02999 kPa
303.59 K	0.03677 kPa
305.95 K	0.04473 kPa
305.99 K	0.04494 kPa
308.38 K	0.05475 kPa
310.74 K	0.0661 kPa
310.78 K	0.06649 kPa
313.18 K	0.08076 kPa
316.23 K	0.1024 kPa
321.01 K	0.1464 kPa
325.83 K	0.2062 kPa
330.68 K	0.2877 kPa
335.48 K	0.394 kPa
340.29 K	0.5345 kPa
342.71 K	0.6231 kPa
345.69 K	0.7489 kPa
348.12 K	0.8693 kPa
350.51 K	0.9921 kPa
352.9 K	1.136 kPa

O=C(O)c1ccccc1 [benzoic acid]
Crystal
Details	vapor or sublimation pressure [kPa]
297.67 K	0.000108
299.96 K	0.000142
300.03 K	0.000143
302.51 K	0.000193
304.75 K	0.00025
307.27 K	0.000335
309.63 K	0.000436
312.08 K	0.000573
314.4 K	0.000738
314.59 K	0.000754
316.91 K	0.000969
319.48 K	0.00127
321.91 K	0.001641
324.39 K	0.002118
326.76 K	0.002676
329.2 K	0.003432
331.62 K	0.004361
334.07 K	0.005542
336.46 K	0.006934
338.98 K	0.008733
